Columns and labels:
Assay type in all cases: cell-based
p-JNK = experiment: Western blot of p-JNK/JNK expression in DOX-induced H9c2 cardiomyocytes; details: FIG. 4; for expression level of p-JNK vs DOX model group: 1 h, then 2.5 μM DOX 24 h
Method: (§1) (2) From H9c2 cardiomyocytes which were treated with different tested seabuckthorn alkaloids for 1 h and then treated with 2.5 μM DOX for 24 h, proteins were extract. That is, the H9c2 cardiomyocytes were lysed and scraped, and the cell lysate were collected and centrifuged at 12,000 g for 15 min to collect the supernatant and discard the precipitate. The supernatant was stored at […], and quantified for proteins using the BCA method for later use. SDS-PAGE electrophoresis was performed by using 5% stacking gel (Step1: 80V, 30 min; Step2: 120V, 180 min). The membrane transfer was performed using a PVDF membrane for 30 min at 80 mA. Blocking and hybridization was performed by blocking in 5% nonfat milk powder for 1 h, incubating with a primary antibody overnight and incubating with a secondary antibody at room temperature for 1-2 h with gentle shaking. Development was performed by ECL reagent development. Expression levels of intracellular Caspase-3 and p-JNK/JNK proteins were observed using a gel imaging system.

Cleaved-Caspase-3 = experiment: Western blot of Cleaved-Caspase-3 expression in DOX-induced H9c2 cardiomyocytes; details: FIG. 3
Method: as §1

H9c2 cardiomyocytes = experiment: Toxicity effect of Hip on H9c2 cardiomyocytes (MTT colorimetric method); details: 24 h, FIG. 1
Method: H9c2 cells were incubated with the alkaloid compound Hip at different concentrations (0.1μ, 1μ, 5μ, 10μ, 20μ, 40μ, 80μ, 160 μM) of for 24 h. The toxicity effect of the alkaloid compound on cardiomyocytes was evaluated by using the MTT colorimetric method.

[1] = tested on: DOX-induced H9c2 cardiomyocytes; experiment: Effect of Hip on DOX-induced H9c2 cardiomyocyte toxicity (MTT colorimetric method); details: 1 h pre-incubation, then 2.5 μM DOX 24 h, FIG. 2
Method: (1) H9c2 cells were pre-incubated with the alkaloid compound Hip for 1 h, and then added with 2.5 μM doxorubicin (DOX) for 24 h. The effect of the alkaloid compound Hip for DOX-induced cardiomyocyte apoptosis activity was screened by using the MTT colorimetric method. The optimal concentration range for action was determined.

[2] = 2.5 μM DOX 24 h, DOX model group

| SMILES | expression level of p-JNK vs Con group (p-JNK; [2]) | expression level of Cleaved-Caspase-3 vs Con group (Cleaved-Caspase-3; [2]) | expression level of p-JNK vs DOX model group (p-JNK; Hip high-dose group 40 μM) | expression level of p-JNK vs DOX model group (p-JNK; Hip low-dose group 10 μM) | expression level of p-JNK vs DOX model group (p-JNK; Hip middle-dose group 20 μM) | expression level of Cleaved-Caspase-3 vs DOX model group (Cleaved-Caspase-3; Hip 10 μM, 20 μM and 40 μM, 1 h, then 2.5 μM DOX 24 h) | viability of H9c2 cells vs Con group (H9c2 cardiomyocytes; Hip 80 μM) | viability of H9c2 cells vs Con group (H9c2 cardiomyocytes; Hip 0.1~40 μM) | difference from DOX model group in DOX-induced myocardial cytotoxicity ([1]; Hip 5-80 μM) | inhibition of DOX-induced myocardial cytotoxicity vs DOX model group ([1]; different Hip concentrations) |
| --- | --- | --- | --- | --- | --- | --- | --- | --- | --- | --- |
| COc1cccc2c1C(=O)c1c(O)c3c(c(O)c1C2=O)C[C@@](O)(C(=O)CO)C[C@@H]3O[C@H]1C[C@H](N)[C@H](O)[C@H](C)O1 [DOX, doxorubicin, reference compound] | can significantly increase the expression level of p-JNK | can significantly increase the expression level of Cleaved-Caspase-3 |  |  |  |  |  |  |  |  |
| O=C1CC[C@H]2c3[nH]c4ccc(O)cc4c3CCN12 [Hip, Hippophamide] |  |  | extremely significant differences | no statistical difference | extremely significant differences | can decrease the increased level of Cleaved-Caspase-3 caused by DOX to varying degree | a significant difference compared with the Con group | no statistical difference compared with the Con group | significantly or extremely significant different | can inhibit DOX-induced myocardial cytotoxicity |

— patent publication US20240342143A1, “APPLICATION OF ALKALOID COMPOUND HIP IN TREATMENT OF CARDIAC TRAUMA” (HUZHOU COLLEGE, priority 2022, published 2024)
